ChEMBL document CHEMBL1201862, “PubChem BioAssay data set” (2004)
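The compound was tested at five concentrations on cells cultured in 96-well plates, with a 48-hour exposure period. Abbreviation: GI50, concentration required for 50% inhibition of growth.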 Activity calls are given as the source filed them. Cut-off read from the data, not from the text of the source: active = GI50 up to about 1.1 µM and inactive = higher.

Key:
Experiment in all cases: NCI anticancer screen, dose series, 48 h
LOX IMVI = system: LOX IMVI
CAKI-1 = system: CAKI-1
SK-MEL-2 = system: SK-MEL-2
SNB-19 = system: SNB-19
SW-620 = system: SW-620
SN12C = system: SN12C
U-251 = system: U-251
SR = system: SR
UACC-62 = system: UACC-62
OVCAR-8 = system: OVCAR-8
SF-268 = system: SF-268
SNB-75 = system: SNB-75
K562 = system: K562
HCC 2998 = system: HCC 2998
HT-29 = system: HT-29
HL-60 = system: HL-60
Malme-3M = system: Malme-3M

Measured: GI50

Cn1c(O)c(C(=O)NC2CCCCC2)c(=O)n(C)c1=S
inactive: LOX IMVI 8.81 µM | CAKI-1 5.89 µM | SK-MEL-2 5.11 µM | SNB-19 7.11 µM | SW-620 5.79 µM | SN12C 6.12 µM | U-251 4.51 µM | SR 17.9 µM | UACC-62 4.57 µM | OVCAR-8 4.33 µM | SF-268 4.56 µM

COCN1COCN/C1=N\C#N
inactive: SNB-75 > 100 µM | K562 88.3 µM | HCC 2998 > 100 µM | CAKI-1 > 100 µM | SK-MEL-2 > 100 µM | SNB-19 > 100 µM | SW-620 22.5 µM | SN12C > 100 µM | HT-29 > 100 µM | U-251 > 100 µM | SR 20.9 µM | HL-60 > 100 µM | UACC-62 > 100 µM | Malme-3M > 100 µM | OVCAR-8 > 100 µM | SF-268 > 100 µM

COC(=O)C(=O)Cc1nc2ccccc2s1
inactive: SNB-75 > 100 µM | LOX IMVI > 100 µM | K562 > 100 µM | HCC 2998 > 100 µM | CAKI-1 > 100 µM | SK-MEL-2 > 100 µM | SNB-19 > 100 µM | SW-620 > 100 µM | SN12C > 100 µM | HT-29 > 100 µM | U-251 > 100 µM | SR > 100 µM | HL-60 > 100 µM | UACC-62 > 100 µM | Malme-3M > 100 µM | OVCAR-8 > 100 µM | SF-268 > 100 µM

Cc1c(/C=N/NS(=O)(=O)c2ccccc2)no[n+]1[O-]
inactive: K562 > 100 µM | CAKI-1 > 100 µM | SK-MEL-2 > 100 µM | SNB-19 37.9 µM | SW-620 > 100 µM | SN12C > 100 µM | HT-29 > 100 µM | U-251 > 100 µM | SR > 100 µM | HL-60 > 100 µM | UACC-62 > 100 µM | Malme-3M > 100 µM | OVCAR-8 > 100 µM | SF-268 > 100 µM

COC(=O)C(=O)C(C(=O)C=C(C)C)C(=O)C(=O)Nc1cccc(C(C)=O)c1 (stereo not drawn)
inactive: SNB-75 > 100 µM | LOX IMVI > 100 µM | K562 > 100 µM | HCC 2998 > 100 µM | CAKI-1 > 100 µM | SK-MEL-2 > 100 µM | SNB-19 > 100 µM | SW-620 > 100 µM | SN12C > 100 µM | HT-29 > 100 µM | U-251 > 100 µM | SR > 100 µM | HL-60 > 100 µM | UACC-62 > 100 µM | Malme-3M > 100 µM | OVCAR-8 > 100 µM | SF-268 > 100 µM

CC(=O)OC[C@]1(C)CCCC2(C)C1CCC1C=C(C)[C@H]3CCC12C3 (stereo partly drawn)
inactive: SNB-75 31.8 µM | LOX IMVI 47.5 µM | K562 > 100 µM | HCC 2998 > 100 µM | CAKI-1 > 100 µM | SNB-19 > 100 µM | SW-620 31.6 µM | SN12C 40.3 µM | HT-29 43.3 µM | U-251 39.7 µM | SR > 100 µM | HL-60 > 100 µM | UACC-62 56.9 µM | Malme-3M > 100 µM | OVCAR-8 > 100 µM | SF-268 37.8 µM

CCNc1nnc(CSc2nc(-c3ccccc3)c(-c3ccccc3)[nH]2)s1
inactive: SNB-75 23 µM | LOX IMVI 16.5 µM | SK-MEL-2 20.8 µM | SNB-19 16.7 µM | SW-620 20.2 µM | SN12C 20.8 µM | HT-29 19.6 µM | U-251 13.7 µM | SR 31 µM | HL-60 15.5 µM | Malme-3M 21.5 µM | OVCAR-8 14 µM | SF-268 15.7 µM

N#C/N=C(/N)NCc1ccccc1
inactive: SNB-75 > 100 µM | LOX IMVI > 100 µM | HCC 2998 23.4 µM | SK-MEL-2 > 100 µM | SN12C > 100 µM | HT-29 > 100 µM | U-251 > 100 µM | SR > 100 µM | HL-60 > 100 µM | Malme-3M > 100 µM | OVCAR-8 > 100 µM | SF-268 > 100 µM

CC(=O)OC1C/C(C)=C/[C@H](O)CC(C)/C=C/[C@@]2(C)CCC(C(C)(C)O)C12 (stereo partly drawn)
inactive: SNB-75 > 100 µM | LOX IMVI > 100 µM | K562 > 100 µM | HCC 2998 > 100 µM | CAKI-1 > 100 µM | SK-MEL-2 > 100 µM | SNB-19 > 100 µM | SW-620 > 100 µM | SN12C > 100 µM | HT-29 > 100 µM | U-251 > 100 µM | SR > 100 µM | HL-60 > 100 µM | UACC-62 > 100 µM | Malme-3M > 100 µM | OVCAR-8 > 100 µM | SF-268 > 100 µM

CCOc1ccccc1NC(=O)CCc1nnc2s/c(=C\CCc3ccccc3)c(=O)n12
inactive: SNB-75 > 100 µM | LOX IMVI > 100 µM | K562 > 100 µM | HCC 2998 > 100 µM | CAKI-1 > 100 µM | SK-MEL-2 > 100 µM | SNB-19 > 100 µM | SW-620 > 100 µM | SN12C > 100 µM | HT-29 > 100 µM | U-251 > 100 µM | SR > 100 µM | HL-60 > 100 µM | UACC-62 > 100 µM | Malme-3M > 100 µM | OVCAR-8 > 100 µM | SF-268 > 100 µM

O=C1C=CC(S(=O)(=O)C2=C/C(=C/Nc3ccc(Cl)cc3)C(=O)C=C2)=C/C1=C/Nc1ccc(Cl)cc1
inactive: SNB-75 47.6 µM | LOX IMVI > 100 µM | K562 > 100 µM | HCC 2998 > 100 µM | CAKI-1 > 100 µM | SK-MEL-2 > 100 µM | SNB-19 > 100 µM | SW-620 > 100 µM | SN12C > 100 µM | HT-29 > 100 µM | U-251 > 100 µM | SR > 100 µM | HL-60 > 100 µM | UACC-62 > 100 µM | Malme-3M > 100 µM | OVCAR-8 > 100 µM | SF-268 > 100 µM

Cn1c(N)[n+](C(=O)OCc2ccccc2)c(=O)c2c1ncn2C(=O)OCc1ccccc1
inactive: SNB-75 24 µM | LOX IMVI > 100 µM | K562 > 100 µM | HCC 2998 > 100 µM | CAKI-1 53 µM | SK-MEL-2 > 100 µM | SNB-19 30.8 µM | SW-620 > 100 µM | SN12C > 100 µM | HT-29 > 100 µM | U-251 9.82 µM | HL-60 > 100 µM | UACC-62 > 100 µM | Malme-3M > 100 µM | OVCAR-8 > 100 µM | SF-268 28.1 µM

CCO/C([O-])=C(\C(=O)c1ccccc1)[n+]1c(C)sc2ccccc21
inactive: SNB-75 > 100 µM | LOX IMVI 49.2 µM | K562 81.3 µM | HCC 2998 > 100 µM | CAKI-1 > 100 µM | SK-MEL-2 58.3 µM | SNB-19 > 100 µM | SW-620 > 100 µM | HT-29 > 100 µM | U-251 > 100 µM | HL-60 53.2 µM | UACC-62 52.8 µM | Malme-3M 96.6 µM | OVCAR-8 > 100 µM | SF-268 > 100 µM
